Experimental data taken from patent publication US10294202B2, “Pyrrolidinones as herbicides” (FMC Corporation, priority 2013, dated 2019).

What was measured:
[1] = tested on: rice, transplanted; assay: Test F flood (paddy) test; type: in vivo, Oryza sativa cv. Japonica—M202; settings: 21 d, scale 0-100
Text: Three plastic pots (ca. 16-cm diameter) per rate were partially filled with sterilized Tama silt loam soil comprising a 35:50:15 ratio of sand, silt and clay and 2.6% organic matter. Separate plantings for each of the three pots were as follows. Seeds from the U.S. of monochoria (Monochoria vaginalis), sedge, umbrella (small-flower umbrella sedge, Cyperus difformis), bulrush, […] bulrush, Scirpus juncoides), and […] (purple […] coccinea), were planted into one 16-cm pot for each rate. Seeds from the U.S. of flatsedge, rice (rice flatsedge, Cyperus iria), sprangletop, Brdd. (bearded sprangletop, Leptochloa fascicularis), one stand of 9 or 10 water seeded rice seedlings (Rice, W.S. Jap, Oryza sativa cv. 'Japonica-[…]' or Rice, W.S. Ind, 'Indica'), and two stands of 3 or 4 seedlings of rice, transplanted (transplanted rice, Oryza sativa cv. 'Japonica-[…]') were planted into one 16-cm pot for each rate. Seeds from the U.S. of barnyardgrass (Echinochloa crus-galli), […] (common […], Alisma plantago-aquatica), and watergrass, late (late watergrass, Echinochloa oryzicola) were planted into one 16-cm pot for each rate. Plantings were sequential so that crop and weed species were at the 2.0 to 2.5-leaf stage at time of treatment. Potted plants were grown in a greenhouse with day/night temperature settings of 30/27° C., and supplemental balanced lighting was provided to maintain a 16-h photoperiod. Test pots were maintained in the greenhouse until test completion. At time of treatment, test pots were flooded to 3 cm above the soil surface, treated by application of test compounds directly to the paddy water, and then maintained at that water depth for the duration of the test. Effects of treatments on rice and weeds were visually evaluated by comparison to untreated controls after 21 d. Plant response ratings, summarized in Table F, are based on a scale of 0 to 100 where 0 is no effect and 100 is complete control. A dash (-) response means no test result.

[2] = tested on: sprangletop, Brdd.; assay: Test F flood (paddy) test; type: in vivo, Leptochloa fascicularis; settings: 21 d, scale 0-100
How it was run: (§1)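 Pots of sterilized Tama silt loam (35:50:15 sand:silt:clay, 2.6% organic matter) were sown so crop and weeds reached the 2.0–2.5-leaf stage; greenhouse 30/27 °C, 16-h photoperiod. Pots flooded to 3 cm, compound applied into paddy water, depth maintained. Visual rating vs untreated controls after 21 d, 0–100 scale.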

[3] = tested on: monochoria; assay: Test F flood (paddy) test; type: in vivo, Monochoria vaginalis; settings: 21 d, scale 0-100
How it was run: as §1

[4] = tested on: barley, spring; assay: Test D pre-/postemergence herbicide test; type: in vivo, Hordeum vulgare; settings: for Plant response rating, Barley, Spring: scale 0 to 100 (0 no effect, 100 complete control); for Plant response rating: Barley, Spring, scale 0 to 100
How it was run: (§2)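 Test chemicals, formulated in a non-phytotoxic solvent mixture with surfactant, are sprayed preemergence onto seeds in silt loam and postemergence onto plants of 2–18 cm. Plants are held in a controlled growth environment for 7 to 21 days, then rated visually versus controls (0–100).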

[5] = tested on: barley, winter; assay: Test D pre-/postemergence herbicide test; type: in vivo, Hordeum vulgare; settings: for Plant response rating, Barley, Winter: scale 0 to 100 (0 no effect, 100 complete control); for Plant response rating: Barley, Winter, scale 0 to 100
How it was run: as §2

[6] = tested on: lambsquarters; assay: Test D pre-/postemergence herbicide test; type: in vivo, Chenopodium album; settings: for Plant response rating, Lambsquarters: scale 0 to 100 (0 no effect, 100 complete control); for Plant response rating: Lambsquarters, scale 0 to 100
How it was run: as §2

[7] = tested on: Russian thistle; assay: Test D pre-/postemergence herbicide test; type: in vivo, Salsola kali; settings: for Plant response rating: Postemergence, Russian Thistle, scale 0 to 100; for Plant response rating, Russian Thistle: Preemergence, scale 0 to 100 (0 no effect, 100 complete control)
How it was run: as §2

O=C1NCCC1C(=O)N(c1ccc(F)c(F)c1)c1ccccc1F (stereo not shown) [Compound 5, N-(3,4-difluorophenyl)-N-(2-fluorophenyl)-2-oxo-3-pyrrolidinecarboxamide]
90: Plant response rating, Sprangletop, Brdd. ([2]; 2000 g ai/ha)
85: Plant response rating, Sprangletop, Brdd. ([2]; 125 g ai/ha) | Plant response rating, Sprangletop, Brdd. ([2]; 250 g ai/ha) | Plant response rating, Sprangletop, Brdd. ([2]; 500 g ai/ha) | Plant response rating, Sprangletop, Brdd. ([2]; 1000 g ai/ha)
75: Plant response rating, Monochoria ([3]; 125 g ai/ha) | Plant response rating, Monochoria ([3]; 250 g ai/ha) | Plant response rating, Monochoria ([3]; 500 g ai/ha) | Plant response rating, Monochoria ([3]; 1000 g ai/ha) | Plant response rating, Monochoria ([3]; 2000 g ai/ha)
0: Plant response rating, Rice, Transplanted ([1]; 125 g ai/ha) | Plant response rating, Rice, Transplanted ([1]; 250 g ai/ha) | Plant response rating, Rice, Transplanted ([1]; 500 g ai/ha) | Plant response rating, Rice, Transplanted ([1]; 1000 g ai/ha) | Plant response rating, Rice, Transplanted ([1]; 2000 g ai/ha)

O=C1NC[C@H](c2cccc(C(F)(F)F)c2)[C@H]1C(=O)Nc1ccccc1F [Compound 204, (3R,4S)—N-(2-fluorophenyl)-2-oxo-4-[3-(trifluoromethyl)phenyl]-3-pyrrolidinecarboxamide]
25: Plant response rating, Barley, Winter ([5]; Preemergence, 125 g ai/ha)
15: Plant response rating, Barley, Spring ([4]; Preemergence, 62 g ai/ha)
30: Plant response rating, Lambsquarters ([6]; Preemergence, 62 g ai/ha)
65: Plant response rating, Lambsquarters ([6]; Preemergence, 125 g ai/ha)
90: Plant response rating ([6]; Preemergence, 250 g ai/ha)
0: Plant response rating, Rice, Transplanted ([1]; 125 g ai/ha) | Plant response rating, Rice, Transplanted ([1]; 250 g ai/ha) | Plant response rating, Rice, Transplanted ([1]; 500 g ai/ha) | Plant response rating, Barley, Spring ([4]; Preemergence, 31 g ai/ha) | Plant response rating, Barley, Winter ([5]; Preemergence, 31 g ai/ha)
95: Plant response rating, Monochoria ([3]; 125 g ai/ha)
20: Plant response rating, Barley, Spring ([4]; Preemergence, 125 g ai/ha) | Plant response rating, Barley, Winter ([5]; Preemergence, 62 g ai/ha)
98: Plant response rating, Sprangletop, Brdd. ([2]; 125 g ai/ha)
100: Plant response rating, Sprangletop, Brdd. ([2]; 250 g ai/ha) | Plant response rating, Sprangletop, Brdd. ([2]; 500 g ai/ha) | Plant response rating, Monochoria ([3]; 250 g ai/ha) | Plant response rating, Monochoria ([3]; 500 g ai/ha)
35: Plant response rating ([5]; Preemergence, 250 g ai/ha) | Plant response rating, Lambsquarters ([6]; Preemergence, 31 g ai/ha)
45: Plant response rating ([4]; Preemergence, 250 g ai/ha)

O=C1NCC(c2ccc(F)c(F)c2)C1C(=O)Nc1ccccc1C(F)(F)F (racemic) [Compound 6]
10: Plant response rating, Russian Thistle ([7]; 125 g ai/ha) | Plant response rating ([4]; Preemergence, 250 g ai/ha) | Plant response rating ([6]; Postemergence, 31 g ai/ha)
20: Plant response rating ([5]; Preemergence, 250 g ai/ha) | Plant response rating ([6]; Postemergence, 62 g ai/ha) | Plant response rating ([6]; Postemergence, 125 g ai/ha)
100: Plant response rating ([7]; 250 g ai/ha)
0: Plant response rating ([7]; 16 g ai/ha) | Plant response rating ([7]; 31 g ai/ha) | Plant response rating ([7]; 62 g ai/ha) | Plant response rating ([7]; 125 g ai/ha) | Plant response rating, Russian Thistle ([7]; 62 g ai/ha) | Plant response rating, Russian Thistle ([7]; 16 g ai/ha) | Plant response rating, Russian Thistle ([7]; 31 g ai/ha) | Plant response rating ([4]; Postemergence, 16 g ai/ha) | Plant response rating ([4]; Postemergence, 31 g ai/ha) | Plant response rating ([4]; Postemergence, 62 g ai/ha) | Plant response rating ([4]; Postemergence, 125 g ai/ha) | Plant response rating ([4]; Postemergence, 250 g ai/ha) | Plant response rating, Barley, Spring ([4]; Preemergence, 62 g ai/ha) | Plant response rating, Barley, Spring ([4]; Preemergence, 16 g ai/ha) | Plant response rating, Barley, Spring ([4]; Preemergence, 31 g ai/ha) | Plant response rating ([4]; Preemergence, 125 g ai/ha) | Plant response rating ([5]; Postemergence, 16 g ai/ha) | Plant response rating ([5]; Postemergence, 31 g ai/ha) | Plant response rating ([5]; Postemergence, 62 g ai/ha) | Plant response rating ([5]; Postemergence, 125 g ai/ha) | Plant response rating ([5]; Postemergence, 250 g ai/ha) | Plant response rating, Barley, Winter ([5]; Preemergence, 62 g ai/ha) | Plant response rating, Barley, Winter ([5]; Preemergence, 16 g ai/ha) | Plant response rating, Barley, Winter ([5]; Preemergence, 31 g ai/ha) | Plant response rating ([5]; Preemergence, 125 g ai/ha) | Plant response rating ([6]; Postemergence, 16 g ai/ha) | Plant response rating, Lambsquarters ([6]; Preemergence, 62 g ai/ha) | Plant response rating, Lambsquarters ([6]; Preemergence, 16 g ai/ha) | Plant response rating, Lambsquarters ([6]; Preemergence, 31 g ai/ha) | Plant response rating ([6]; Preemergence, 125 g ai/ha) | Plant response rating ([6]; Preemergence, 250 g ai/ha)
30: Plant response rating, Russian Thistle ([7]; 250 g ai/ha) | Plant response rating ([6]; Postemergence, 250 g ai/ha)

O=C1NCC(c2cccc(C(F)F)c2)C1C(=O)Nc1ccccc1F (racemic) [Compound 210]
65: Plant response rating, Monochoria ([3]; 125 g ai/ha)
0: Plant response rating, Rice, Transplanted ([1]; 125 g ai/ha) | Plant response rating, Rice, Transplanted ([1]; 250 g ai/ha) | Plant response rating, Rice, Transplanted ([1]; 500 g ai/ha)
100: Plant response rating, Sprangletop, Brdd. ([2]; 125 g ai/ha) | Plant response rating, Sprangletop, Brdd. ([2]; 250 g ai/ha) | Plant response rating, Sprangletop, Brdd. ([2]; 500 g ai/ha) | Plant response rating, Monochoria ([3]; 500 g ai/ha)
85: Plant response rating, Monochoria ([3]; 250 g ai/ha)
